Tests used:
U2OS cells = assay: Tandem sensor RFP-GFP-LC3B: fraction of yellow (neutral pH) puncta; assay type: cell-based, human; conditions: 1 μM, 4 hrs
Description: Confocal microscopic images are shown in FIG. 12A of U2OS cells expressing a modified tandem sensor RFP-GFP-tagged LC3B protein in which the green signal from a mutated GFP was suppressed in an acidic environment, with little or no effect on the red signal from RFP. Thus, autophagosomes with neutral pH would fluoresce yellow, whereas autolysosomes with acidic pH would fluoresce red. These cells were treated with either vehicle or 1 μM compound 1 for 4 hrs. The fraction of yellow puncta, representing autophagosomes with a neutral pH, was quantified in 50 cells from each of three independent experiments (mean±SEM; Student's t-test, p<0.0001) as shown in FIG. 12B. The fraction of yellow puncta increased 4-fold in the presence of compound 1 (right side graph).
To determine whether the accumulation of autophagosomes resulted from induction of autophagy or from disruption of autophagic flux, cells were transfected with a vector expressing a modified tandem sensor RFP-GFP-tagged LC3B protein in which the green signal from a mutated GFP was suppressed in an acidic environment, with little or no effect on the red signal from RFP^41. Therefore, in merged images, only red puncta indicated acidic autolysosomes; yellow puncta indicated either autophagosomes or non-acidic autolysosomes. […]

melanoma A375 cells = assay: A375 cell viability (CellTiter-Glo ATP, trypan blue live cells); assay type: cell-based, human; conditions: 0.1 μM
Description: To reveal viability, cells were seeded into 96-well plates (1,000 cells/well), and the indicated compound was added the following day. Cells were cultured for four days before quantification of total cellular ATP. […] In separate 12-well plates, attached cells were collected by trypsinization, combined with unattached cells, and stained with trypan blue to identify dead cells. Vehicle was plotted as 0.001 μM compound in order to apply a logarithmic scale. Data were plotted as the mean±SEM for three independent experiments.
(§1) Cells were obtained from the American Type Culture Collection. BORCS5-KO HeLa cells have been described previously. Osteosarcoma U2OS were routinely seeded in 6-well plates (0.5×10^5 cells/well) and cultured in Dulbecco's Modified Eagle's medium supplemented with L-Glutamine, 4.5 g/L Glucose, Sodium Pyruvate, Phenol Red, and either heat-inactivated or normal 10% fetal calf serum at 37° C. in 5% CO2. Approximately 15-19 hours later, the indicated compound was added in 1:1000 dilutions. […] Melanoma A375, embryonic kidney 293T and human foreskin fibroblast Hs27 cells were cultured in the same medium, except that cells were seeded into 12-well plates at 10^3 cells/well.

[1] = test system: human foreskin fibroblasts; assay: Proliferation/viability of human foreskin fibroblasts; assay type: cell-based; conditions: Fibroblast; human foreskin fibroblasts; read-out: EC50
Description: Concentration of each compound in the plate assay is indicated below the compound 1 plate.
as §1

embryonic kidney cells = assay: Viability of embryonic kidney cells; assay type: cell-based; conditions: Homo sapiens; embryonic kidney cells; read-out: EC50
Description: FIG. 18 summarizes results from 13 human cell lines. All cells were seeded at the same cell density in a rich culture medium and assayed under identical conditions. Compound 1 efficacy is the ratio of cell viability with compound 1 to cell viability with chloroquine derivatives.
as §1

melanoma A375 tumors [2] = assay: Expansion of preformed A375 tumors in inbred nude mice; assay type: in vivo; conditions: 20 or 40 mg/kg intraperitoneally each day for 14 days
Description: (A) Melanoma A375 cells were cultured to 80% confluency and then inoculated subcutaneously into both flanks of inbred nude mice. Palpable tumors (˜40-50 mm^3) appeared within 7 days. (B) Either vehicle or 20 or 40 mg of compound 1 per kg of the mouse was injected intraperitoneally each day for a period of 14 days. Compound 1 was dissolved in sunflower seed oil. Tumors were excised on day 21. […] Error bars indicate the SEM for 6 tumors.
To determine whether or not compound 1 could inhibit expansion of a preformed tumor that arose from autophagy-dependent cancer cells, melanoma A375 cells were inoculated into the flanks of immuno-compromised mice and allowed to form a palpable tumor. Mice were then injected intraperitoneally once a day with varying amount of compound 1.

melanoma A375 tumors [3] = assay: Vacuolation and autophagy markers within tumors of treated mice; assay type: in vivo
From the text: Cytoplasmic vacuolation was clear in tumors from compound 1-treated mice, and the extent of vacuolation was clearly greater at with greater concentrations of compound 1.
To determine whether or not compound 1 injected intraperitoneally was active within the tumor, tumor slices were stained with hematoxylin and eosin to visualize cellular structure.

## C1=Nc2ccccc2/C1=C/NNc1nc(Nc2ccccc2)nc(N2CCOCC2)n1 [compound 1]
U2OS cells
  Increase in fraction of yellow puncta: 4 fold
  Puncta that were yellow in merged images: at least 80%
Melanoma A375 cells
  Effect on Melanoma A375 cells: killed
[1]
  EC50: > 10 µM
Embryonic kidney cells
  EC50: > 10 µM
Melanoma A375 tumors [2]
  Ill effects on mice: no exhibited ill effects
Melanoma A375 tumors [2]; inbred nude mice
  Expansion of preformed tumors: inhibited by compound 1 in a dose dependent manner
Melanoma A375 tumors [3]; Western blot
  LC3-II and p62 proteins in tumor lysates: increased levels of LC3-H and p62 proteins
Melanoma A375 tumors [3]; hematoxylin and eosin
  Cytoplasmic vacuolation in tumor slices: clearly evident
